IC50 data for 37 molecules are collected here from US8980926B2, “2-aminoindole compounds and methods for the treatment of malaria” (Genzyme Corporation, priority 2009, dated 2015).

The subject of the experiment is P. falciparum strain 3D7. Nature of the experiment: In vitro potency against P. falciparum strain 3D7 (SYBR green/DAPI). Format: cell-based. The following applies: Plasmodium falciparum, reductions in parasitemia, read-out: IC50 values.

Take `NC1=Nc2ccccc2C1(O)c1ccccc1` (stereo not shown) [Compound 4]: the 50% inhibitory concentration (IC50) was 100 to 500 nM.

Consider `COc1ccc(C2(O)C(N)=Nc3ccccc32)cc1` (stereo not shown) [Compound 5], for which the IC50 lay in the range of 100 to 500 nM.

With `CC(C)(C)c1ccc(C2(O)C(N)=Nc3ccccc32)cc1` (stereo not shown) [Compound 6], the IC50 lay within 500 to 1000 nM.

On to `COc1cccc(C2(O)C(N)=Nc3ccccc32)c1` (stereo not shown) [Compound 7], for which the IC50 is 100 to 500 nM.

As to `NC1=Nc2ccccc2C1(O)c1ccc(C(F)(F)F)cc1` (stereo not shown) [Compound 8], the IC50 lay in the range of 100 to 500 nM.

Turning to `CC1(O)C(N)=Nc2ccccc21` (stereo not shown) [Compound 9], the IC50 is 1000 to 5000 nM.

For the molecule `NC1=Nc2ccccc2C1(O)c1cccc2ccccc12` (stereo not shown) [Compound 10], the IC50 was in the range of 1 to 100 nM.

Take `NC1=Nc2ccc(Cl)cc2C1(O)c1ccc(F)c2ccccc12` (stereo not shown) [Compound 12]: the IC50 lay within 1 to 100 nM.

As for `NC1=Nc2ccc(Cl)cc2C1(O)c1ccc2c(c1)OCO2` (stereo not shown) [Compound 13], the IC50 is 100 to 500 nM.

In the case of `NC1=Nc2ccc(Cl)cc2C1(O)c1cccc(C(F)(F)F)c1` (stereo not shown) [Compound 14], the IC50 lay in the range of 100 to 500 nM.

As for `CN(C)c1cccc(C2(O)C(N)=Nc3ccccc32)c1` (stereo not shown) [Compound 15], the IC50 is 100 to 500 nM.

Turning to `NC1=Nc2ccc(Cl)cc2C1(O)c1ccc(C(F)(F)F)cc1` (stereo not shown) [Compound 16], the 50% inhibitory concentration (IC50) was 100 to 500 nM.

As to `NC1=Nc2ccc(Cl)cc2C1(O)c1ccc(N2CCOCC2)cc1` (stereo not shown) [Compound 17], the IC50 fell in the range of 500 to 1000 nM.

As to `CC(C)(C)c1ccc(C2(O)C(N)=Nc3ccc(Cl)cc32)cc1` (stereo not shown) [Compound 18], the IC50 was 100 to 500 nM.

Regarding `NC1=Nc2ccccc2C1(O)c1cccc(C(F)(F)F)c1` (stereo not shown) [Compound 19], the IC50 lay in the range of 100 to 500 nM.

`NC1=Nc2ccccc2C1(O)c1ccc(N2CCOCC2)cc1` (stereo not shown) [Compound 20]: the IC50 fell in the range of 500 to 1000 nM.

`CN(C)c1cccc(C2(O)C(N)=Nc3ccc(Cl)cc32)c1` (stereo not shown) [Compound 21]: the IC50 is 100 to 500 nM.

As for `Cc1ccc(C2(O)C(N)=Nc3ccc(Cl)cc32)cc1` (stereo not shown) [Compound 22], the IC50 lay within 500 to 1000 nM.

Turning to `COc1cccc(C2(O)C(N)=Nc3ccc(Cl)cc32)c1` (stereo not shown) [Compound 23], the concentration for half-maximal inhibition (IC50) fell in the range of 100 to 500 nM.

Turning to `NC1=Nc2ccc(Cl)cc2C1(O)c1ccc2ccccc2c1` (stereo not shown) [Compound 24], the 50% inhibitory concentration (IC50) was 100 to 500 nM.

As for `NC1=Nc2ccccc2C1(O)c1ccc2ccccc2c1` (stereo not shown) [Compound 25], the IC50 was in the range of 100 to 500 nM.

With `CCCCC1(O)C(N)=Nc2ccc(Cl)cc21` (stereo not shown) [Compound 26], the IC50 was 100 to 500 nM.

For `CC(C)c1ccccc1C1(O)C(N)=Nc2ccc(Cl)cc21` (stereo not shown) [Compound 27], the IC50 is 1 to 100 nM.

In the case of `NC1=Nc2ccc(Cl)cc2C1(O)c1cccc(F)c1` (stereo not shown) [Compound 28], the IC50 is 100 to 500 nM.

Regarding `Cc1ccccc1C1(O)C(N)=Nc2ccccc21` (stereo not shown) [Compound 30], the IC50 lay within 100 to 500 nM.

For `NC1=Nc2cccc(Cl)c2C1(O)c1ccccc1` (stereo not shown) [Compound 33], the IC50 lay in the range of 100 to 500 nM.

With `NC1=Nc2cc(Cl)ccc2C1(O)c1ccccc1` (stereo not shown) [Compound 34], the IC50 was 500 to 1000 nM.

For the molecule `NC1=Nc2c(Cl)cccc2C1(O)c1ccccc1` (stereo not shown) [Compound 35], the IC50 was 1000 to 5000 nM.

On to `NC1=Nc2ccc(F)cc2C1(O)c1ccccc1` (stereo not shown) [Compound 36], for which the IC50 lay in the range of 100 to 500 nM.

Turning to `NC1=Nc2ccc(Cl)c(Cl)c2C1(O)c1ccccc1` (stereo not shown) [Compound 40], the IC50 was 100 to 500 nM.

For the molecule `NC1=Nc2ccc(Br)cc2C1(O)c1ccccc1` (stereo not shown) [Compound 41], the IC50 is 1 to 100 nM.

As for `COc1ccc2c(c1)C(O)(c1ccccc1)C(N)=N2` (stereo not shown) [Compound 42], the IC50 was in the range of 100 to 500 nM.

Regarding `NC1=Nc2ccc(Cl)cc2C1(O)CC1CCCCC1` (stereo not shown) [Compound 43], the IC50 fell in the range of 1 to 100 nM.

Regarding `COc1cc(C2(O)C(N)=Nc3ccc(Cl)cc32)c2c(ccn2C)c1` (stereo not shown) [Compound 44], the IC50 is 5000 to 15000 nM.

Regarding `COc1cc(C2(O)C(N)=Nc3ccc(Cl)cc32)c2ccccc2c1` (stereo not shown) [Compound 45], the concentration for half-maximal inhibition (IC50) fell in the range of 5000 to 15000 nM.

On to `NC1=Nc2c(ccc(Cl)c2Cl)C1(O)c1ccccc1` (stereo not shown) [Compound 46], for which the IC50 fell in the range of 1000 to 5000 nM.

For the molecule `NC1=Nc2ccc(OC(F)(F)F)cc2C1(O)c1ccccc1` (stereo not shown) [Compound 47], the half-maximal inhibitory concentration (IC50) is 1000 to 5000 nM.

For orientation: IC50 means the concentration needed to halve the response being measured.
